Holding throughout (type): cell-based
For one assay, the target named is T1, DmoGr43a (Drosophila mojavensis, UniProt B4KNE2).
T1 construct: gene Dmoj\GI20824; expressed in HEK293 cells for function; purified homotetramer for cryo-EM; printed residues R70, Y312, F313, F315, L386, I418, L419, I420, F422
T1 sequence (B4KNE2 1-427): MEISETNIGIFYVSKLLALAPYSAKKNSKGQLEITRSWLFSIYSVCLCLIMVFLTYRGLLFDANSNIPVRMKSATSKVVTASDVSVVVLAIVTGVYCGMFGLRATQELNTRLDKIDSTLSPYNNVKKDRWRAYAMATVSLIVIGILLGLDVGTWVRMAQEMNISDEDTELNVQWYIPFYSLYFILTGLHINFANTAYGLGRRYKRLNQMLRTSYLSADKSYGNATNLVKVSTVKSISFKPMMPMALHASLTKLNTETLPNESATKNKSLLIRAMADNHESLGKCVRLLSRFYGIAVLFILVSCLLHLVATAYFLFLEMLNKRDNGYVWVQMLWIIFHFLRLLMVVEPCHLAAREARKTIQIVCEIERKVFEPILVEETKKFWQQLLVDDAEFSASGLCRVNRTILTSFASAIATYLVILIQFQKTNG
The assay can be described thus: electrophysiology, HEK293 cells. As to conditions: activation; also calcium imaging; cryo-EM structure of complex.

In assay [1] the target is T2, DmGr64a (Drosophila melanogaster, UniProt P83293).
T2 construct: gene Gr64a; expressed in HEK293 cells for function; purified homotetramer for cryo-EM; residues Y234, W260, F333, L338, L339, F342, E399, F403, I420, V438, L439, Q441
T2 sequence (P83293 1-456): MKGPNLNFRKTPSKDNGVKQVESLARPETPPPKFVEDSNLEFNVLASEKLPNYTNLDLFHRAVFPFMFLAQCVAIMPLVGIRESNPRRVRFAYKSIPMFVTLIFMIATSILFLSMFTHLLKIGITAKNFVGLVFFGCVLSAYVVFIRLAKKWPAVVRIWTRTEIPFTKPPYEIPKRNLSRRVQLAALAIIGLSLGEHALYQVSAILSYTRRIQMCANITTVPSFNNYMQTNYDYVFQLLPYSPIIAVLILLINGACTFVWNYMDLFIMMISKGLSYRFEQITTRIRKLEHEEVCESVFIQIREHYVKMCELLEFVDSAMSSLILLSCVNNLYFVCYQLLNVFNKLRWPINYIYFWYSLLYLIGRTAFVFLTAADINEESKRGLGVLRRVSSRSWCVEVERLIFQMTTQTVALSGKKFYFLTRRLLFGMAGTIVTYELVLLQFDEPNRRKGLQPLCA
In words: calcium imaging, HEK293 cells. The note with it: activation.

Assay [2] concerns the target T2, DmGr64a. The assay can be described thus: calcium imaging, HEK293 cells.

As usually defined, the EC50 is the midpoint of the concentration-response curve.

On to `OCC1(O)OC[C@@H](O)[C@@H](O)[C@@H]1O` (some centres unmarked) [fructose], for which, on DmoGr43a, the concentration giving a half-maximal response (EC50) is 43 ± 4.69 mM. The “calcium imaging, HEK293 cells” value at DmGr64a [1] was “several sugars including fructose, trehalose, sucrose and maltose were able to activate DmGr64a”.
Take `OC[C@H]1O[C@H](O[C@H]2[C@H](O)[C@@H](O)C(O)O[C@@H]2CO)[C@H](O)[C@@H](O)[C@@H]1O` (some centres unmarked) [maltose]: the “calcium imaging, HEK293 cells” value at DmGr64a [1] is “several sugars including fructose, trehalose, sucrose and maltose were able to activate DmGr64a”.
On to `OC[C@H]1O[C@@](CO)(O[C@H]2O[C@H](CO)[C@@H](O)[C@H](O)[C@H]2O)[C@@H](O)[C@@H]1O` [sucrose], for which the EC50 at DmGr64a [2] is around 1.77 mM.
As for `OC[C@H]1O[C@H](O[C@H]2O[C@H](CO)[C@@H](O)[C@H](O)[C@H]2O)[C@H](O)[C@@H](O)[C@@H]1O` [trehalose], at DmGr64a [1], the “calcium imaging, HEK293 cells” value is “several sugars including fructose, trehalose, sucrose and maltose were able to activate DmGr64a”.

The record behind these values is publication PMC11300463, “Structure basis for sugar specificity of gustatory receptors in insects” (Cell Discovery, 2024).
